In paper PMC11680164 (Viruses, 2024):
“Also recorded” adds a separate entry of the source.

System: SARS-CoV-2 P.1 lineage (gamma variant)
Parameters: species or system K18-hACE2 mice
Settings: in vivo

COC(=O)N[C@H](C(=O)N1CCC[C@H]1c1nc(-c2ccc(-c3ccc(-c4c[nH]c([C@@H]5CCCN5C(=O)[C@@H](NC(=O)OC)C(C)C)n4)cc3)cc2)c[nH]1)C(C)C [daclatasvir]
mouse survival: increased mouse survival; also recorded: did not significantly affect
LDH levels in bronchoalveolar lavage (BAL) fluid (cell death, lung necrosis) (mouse): decreased levels
SARS-CoV-2-induced increase in IL-6 (mouse): prevented
SARS-CoV-2-induced increase in KC (mouse): prevented
SARS-CoV-2-induced increase in TNF-α (mouse): prevented
cellular infiltration in BAL fluid (mouse): reduced cellular infiltration
double-stranded RNA (dsRNA) levels in the lungs (mouse): lower levels
loss of body weight (mouse): reduced
lung parenchyma affected by alveolar collapse (mouse): ~10%
reduction of SARS-CoV-2 RNA levels in the lungs (mouse): up to 3 log10
reduction of SARS-CoV-2 titers in the lungs (mouse): up to 3 log10
virus-induced score of clinical severity (mouse): reduced
